Assay results: PubChem BioAssay AID2060883 (Molecular Pharmacology Branch, DTP, NCI, 2025)
One block for each compound: values may come before it.

Test system: 843782-103-R-J1-PDC complex spheroid viability
Test: Anticancer human tumor 843782-103-R-J1-PDC patient-derived lung adenocarcinoma cell line growth inhibition [RAS]
Conditions: for IC50: curve of first compound; for viability, T/C: stronger effect = lower value
Text: RAS pathway inhibitors in Combinations in Complex Spheroids
A high-throughput screen of multi-cell type tumor spheroids was designed to identify active combinations of RAS pathway inhibitors and targeted small molecules. Complex spheroids include a stromal component modeled by human endothelial cells (HUVEC) and fibroblasts modeled by human mesenchymal stem cells (MSCs). The concentration ranges selected for each drug and investigational agent were based upon clinically achievable concentrations if the clinical Cmax of the agent was known.
Compounds. The drugs and investigational agents: abemaciclib (NSC768073), cobimetinib (NSC768068), divarasib (GDC6063, NSC841802), docetaxel (NSC628503), GDC-1971 (RLY-1971, NSC841576), gemcitabine (NSC613327), inavolisib (NSC800729), ipatasertib (NSC767898), KB-0742 (NSC834161), MRTX-1133 (NSC836407), osimertinib (NSC779217), RMC-4630 (NSC839698), RMC-6236 (NSC851965), RMC-6291 (NSC852671), Ro-3306 (NSC812927), sapanisertib (NSC764658), SN-38 (NSC673596), staurosporine (NSC755774), SY5609 (NSC837396), and tovorafenib (DAY101, NSC766906), were obtained from the National Cancer Institute (NCI) Developmental Therapeutics Program Chemical Repository. The FDA-approved anticancer drug set is available from the NCI Developmental Therapeutics Program. […] The stock solutions were prepared in dimethyl sulfoxide (DMSO, Sigma-Aldrich, St. Louis, MO, cat. D2650) at 800-fold the tested concentration and stored at -70 degrees C prior to their use. All drugs and investigational agents were tested over a range starting from a high concentration at or near the clinical Cmax and decreasing in half-log increments. If the clinical Cmax for an agent had not been determined, the highest concentration tested was 10 microM.
Cell Culture. All cells were maintained in an incubator at 37 degrees C and 5% CO2 with 95% humidity. The PDC lines were cultured according to standard operating procedures established by the NCI PDMR. All PDCs were thawed and cultured in Matrigel-coated flasks prepared with a working solution of 1X Ham's F-12 nutrient mix, without supplementation (Invitrogen, Waltham, MA, cat. 11765054), 100 U/mL penicillin-streptomycin (Invitrogen, cat. 15140122), and 2.5% Matrigel (Corning Inc., Corning, NY, cat. 354248) for the first three passages. The 362531-283-R-J2-PDC and 782815-120-R-J1-PDC lines were cultured in 6C/Colon 1B media, which includes advanced DMEM/F-12 (Thermo Fisher Scientific, cat. 12634028), 10 mM HEPES (Thermo Fisher Scientific, cat. 15630080), 1X GlutaMAX supplement (Thermo Fisher Scientific, cat. 35050061), 0.1 mg/mL primocin (InvivoGen, San Diego, CA, cat. ant-pm-2), 10% defined fetal bovine serum, heat inactivated (HyClone Laboratories Inc., Logan, UT, cat. SH30070.03HI), 50% L-WRN conditioned media (ATCC, cat. CRL-3276), 1.25 mM N-Acetyl-L-cysteine (Sigma-Aldrich, cat. A9165), 10 mM nicotinamide (Sigma-Aldrich, cat. N0636), 1X B-27 supplement (Thermo Fisher Scientific, cat. 17504044), 1X N-2 supplement (Thermo Fisher Scientific, cat. 17502048), 50 ng/mL human EGF (Thermo Fisher Scientific, cat. PHG0311), and 10 microM Y-27632 dihydrochloride (Tocris Bioscience, cat. 1254). The K12877-001-R-J1-PDC line was cultured in 6I media, which includes all 6C/Colon 1B media plus 10 ng/mL human FGF-10 (PeproTech, cat. 100-26), 1 ng/mL human FGF-2 (PeproTech, cat. 100-18B), 1 µM prostaglandin E2 (Tocris Bioscience, cat. 2296), […] hydrocortisone (Sigma-Aldrich, cat. H4001), and […] bovine insulin (Sigma-Aldrich, cat. I6634). The K86415-001-R-J1-PDC line was cultured in 6D media, which includes all 6C/Colon 1B media components minus the L-WRN conditioned media. The 485176-168-R4-J1-PDC was cultured in PANC media, which includes all 6C/Colon 1B media plus 100 ng/mL human FGF-10 (PeproTech, cat. 100-26), 500 nM SB-431542 (Selleckchem, cat. S1067), and 10 nM gastrin (Tocris Bioscience, cat. 3006). […]

[1] = second compound 0.0316 µM, first compound 0.0316 µM
[2] = second compound 0.0316 µM, first compound 0.1 µM
[3] = second compound 0.0316 µM, first compound 0.316 µM
[4] = second compound 0.0316 µM, first compound 1 µM
[5] = second compound 0.0316 µM, first compound 3.16 µM
[6] = second compound 0.0316 µM, first compound 10 µM
[7] = second compound 0.1 µM, first compound 0.0316 µM
[8] = second compound 0.1 µM, first compound 0.1 µM
[9] = second compound 0.1 µM, first compound 0.316 µM
[10] = second compound 0.1 µM, first compound 1 µM
[11] = second compound 0.1 µM, first compound 3.16 µM
[12] = second compound 0.1 µM, first compound 10 µM
[13] = second compound 0.316 µM, first compound 0.0316 µM
[14] = second compound 0.316 µM, first compound 0.1 µM
[15] = second compound 0.316 µM, first compound 0.316 µM
[16] = second compound 0.316 µM, first compound 1 µM
[17] = second compound 0.316 µM, first compound 3.16 µM
[18] = second compound 0.316 µM, first compound 10 µM
[19] = second compound 1 µM, first compound 0.0316 µM
[20] = second compound 1 µM, first compound 0.1 µM
[21] = second compound 1 µM, first compound 0.316 µM
[22] = second compound 1 µM, first compound 1 µM
[23] = second compound 1 µM, first compound 3.16 µM
[24] = second compound 1 µM, first compound 10 µM
[25] = second compound 3.16 µM, first compound 0.0316 µM
[26] = second compound 3.16 µM, first compound 0.1 µM
[27] = second compound 3.16 µM, first compound 0.316 µM
[28] = second compound 3.16 µM, first compound 1 µM
[29] = second compound 3.16 µM, first compound 3.16 µM
[30] = second compound 3.16 µM, first compound 10 µM
[31] = second compound 10 µM, first compound 0.0316 µM
[32] = second compound 10 µM, first compound 0.1 µM
[33] = second compound 10 µM, first compound 0.316 µM
[34] = second compound 10 µM, first compound 1 µM
[35] = second compound 10 µM, first compound 3.16 µM
[36] = second compound 10 µM, first compound 10 µM
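Also: viability read after seven days of compound exposure.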

IC50 (second compound 0.0316 µM): 1850 nM
IC50 (second compound 0.1 µM): 1900 nM
IC50 (second compound 0.316 µM): 1820 nM
IC50 (second compound 1 µM): 1740 nM
IC50 (second compound 3.16 µM): 1260 nM
IC50 (second compound 10 µM): 642 nM
SMILES: CCC(CC)c1cc(NC2CCC(N)C2)n2nccc2n1 (stereo unspecified) + C#Cc1c(F)ccc2cc(O)cc(-c3ncc4c(N5CC6CCC(C5)N6)nc(OCC56CCCN5CC(F)C6)nc4c3F)c12
viability, T/C [1]: 107%
viability, T/C [2]: 102%
viability, T/C [3]: 100%
viability, T/C [4]: 108%
viability, T/C [5]: 2.66%
viability, T/C [6]: 0.77%
viability, T/C [7]: 112%
viability, T/C [8]: 105%
viability, T/C [9]: 114%
viability, T/C [10]: 111%
viability, T/C [11]: 2.16%
viability, T/C [12]: 0.62%
viability, T/C [13]: 113%
viability, T/C [14]: 109%
viability, T/C [15]: 99.4%
viability, T/C [16]: 102%
viability, T/C [17]: 2.35%
viability, T/C [18]: 0.68%
viability, T/C [19]: 89.2%
viability, T/C [20]: 98%
viability, T/C [21]: 96.7%
viability, T/C [22]: 95.2%
viability, T/C [23]: 1.42%
viability, T/C [24]: 0.57%
viability, T/C [25]: 86.4%
viability, T/C [26]: 83.9%
viability, T/C [27]: 91.3%
viability, T/C [28]: 62.4%
viability, T/C [29]: 2.2%
viability, T/C [30]: 0.56%
viability, T/C [31]: 67.2%
viability, T/C [32]: 59.9%
viability, T/C [33]: 64.2%
viability, T/C [34]: 41.5%
viability, T/C [35]: 0.51%
viability, T/C [36]: 0.22%

IC50 (second compound 0.0316 µM): 8650 nM
IC50 (second compound 0.1 µM): 5420 nM
IC50 (second compound 0.316 µM): 4690 nM
IC50 (second compound 1 µM): 536 nM
IC50 (second compound 3.16 µM): 141 nM
IC50 (second compound 10 µM): < 31.6 nM
SMILES: Cc1nc(N2CCC3(CC2)COC(C)C3N)c(CO)nc1Sc1ccnc(N)c1Cl (stereo unspecified) + C#Cc1c(F)ccc2cc(O)cc(-c3ncc4c(N5CC6CCC(C5)N6)nc(OCC56CCCN5CC(F)C6)nc4c3F)c12
viability, T/C [1]: 107%
viability, T/C [2]: 102%
viability, T/C [3]: 85.6%
viability, T/C [4]: 77.2%
viability, T/C [5]: 68.2%
viability, T/C [6]: 45.8%
viability, T/C [7]: 105%
viability, T/C [8]: 98%
viability, T/C [9]: 83.1%
viability, T/C [10]: 72.6%
viability, T/C [11]: 54.3%
viability, T/C [12]: 44%
viability, T/C [13]: 100%
viability, T/C [14]: 91.4%
viability, T/C [15]: 79.5%
viability, T/C [16]: 65.9%
viability, T/C [17]: 50.6%
viability, T/C [18]: 46.2%
viability, T/C [19]: 96%
viability, T/C [20]: 80.9%
viability, T/C [21]: 60%
viability, T/C [22]: 39.5%
viability, T/C [23]: 29.6%
viability, T/C [24]: 32.1%
viability, T/C [25]: 82.6%
viability, T/C [26]: 54.5%
viability, T/C [27]: 39.4%
viability, T/C [28]: 27.9%
viability, T/C [29]: 27.4%
viability, T/C [30]: 23.4%
viability, T/C [31]: 49.2%
viability, T/C [32]: 32.2%
viability, T/C [33]: 30.9%
viability, T/C [34]: 25.4%
viability, T/C [35]: 21.6%
viability, T/C [36]: 21.2%

IC50 (second compound 0.0316 µM): 1160 nM
IC50 (second compound 0.1 µM): 642 nM
IC50 (second compound 0.316 µM): 231 nM
IC50 (second compound 1 µM): 72.1 nM
IC50 (second compound 3.16 µM): < 31.6 nM
IC50 (second compound 10 µM): < 31.6 nM
SMILES: NC1c2ccccc2OC12CCN(c1cnc3c(N4CCCc5ncccc54)n[nH]c3n1)CC2 (stereo unspecified) + C#Cc1c(F)ccc2cc(O)cc(-c3ncc4c(N5CC6CCC(C5)N6)nc(OCC56CCCN5CC(F)C6)nc4c3F)c12
viability, T/C [1]: 92.1%
viability, T/C [2]: 81.1%
viability, T/C [3]: 60.6%
viability, T/C [4]: 53%
viability, T/C [5]: 40.9%
viability, T/C [6]: 25.8%
viability, T/C [7]: 87.8%
viability, T/C [8]: 69.8%
viability, T/C [9]: 54.9%
viability, T/C [10]: 46.2%
viability, T/C [11]: 37.9%
viability, T/C [12]: 22.5%
viability, T/C [13]: 82%
viability, T/C [14]: 61.8%
viability, T/C [15]: 42.8%
viability, T/C [16]: 37.2%
viability, T/C [17]: 29.4%
viability, T/C [18]: 21.2%
viability, T/C [19]: 69%
viability, T/C [20]: 38.5%
viability, T/C [21]: 32.9%
viability, T/C [22]: 26.8%
viability, T/C [23]: 21.3%
viability, T/C [24]: 14.9%
viability, T/C [25]: 43.3%
viability, T/C [26]: 25.7%
viability, T/C [27]: 22.9%
viability, T/C [28]: 18.8%
viability, T/C [29]: 21.1%
viability, T/C [30]: 15.9%
viability, T/C [31]: 30.3%
viability, T/C [32]: 16.4%
viability, T/C [33]: 24%
viability, T/C [34]: 19.1%
viability, T/C [35]: 17.5%
viability, T/C [36]: 9.27%
